Twelve compounds from patent US6511961B1, “Cyclic peptides and medicinal use thereof” (Toray Industries, Inc., priority 1997, dated 2003) can be followed below.

SMILES strings stand for the structures. Bridge positions count the residues as written; N and C are the ends. Square brackets hold non-standard residues; d marks the D form. Peptide text beside a SMILES is read from it. 2Nal = N[C@@H](Cc1ccc2ccccc2c1)C(=O)O; Met(O2) = CS(=O)(=O)CC[C@H](N)C(=O)O; 2Pal = N[C@@H](Cc1ccccn1)C(=O)O; Tic = O=C(O)[C@@H]1Cc2ccccc2CN1; Chg = N[C@H](C(=O)O)C1CCCCC1

VLA-4-IgG chimeric protein, sequence (P13612 34-1032, change not shown): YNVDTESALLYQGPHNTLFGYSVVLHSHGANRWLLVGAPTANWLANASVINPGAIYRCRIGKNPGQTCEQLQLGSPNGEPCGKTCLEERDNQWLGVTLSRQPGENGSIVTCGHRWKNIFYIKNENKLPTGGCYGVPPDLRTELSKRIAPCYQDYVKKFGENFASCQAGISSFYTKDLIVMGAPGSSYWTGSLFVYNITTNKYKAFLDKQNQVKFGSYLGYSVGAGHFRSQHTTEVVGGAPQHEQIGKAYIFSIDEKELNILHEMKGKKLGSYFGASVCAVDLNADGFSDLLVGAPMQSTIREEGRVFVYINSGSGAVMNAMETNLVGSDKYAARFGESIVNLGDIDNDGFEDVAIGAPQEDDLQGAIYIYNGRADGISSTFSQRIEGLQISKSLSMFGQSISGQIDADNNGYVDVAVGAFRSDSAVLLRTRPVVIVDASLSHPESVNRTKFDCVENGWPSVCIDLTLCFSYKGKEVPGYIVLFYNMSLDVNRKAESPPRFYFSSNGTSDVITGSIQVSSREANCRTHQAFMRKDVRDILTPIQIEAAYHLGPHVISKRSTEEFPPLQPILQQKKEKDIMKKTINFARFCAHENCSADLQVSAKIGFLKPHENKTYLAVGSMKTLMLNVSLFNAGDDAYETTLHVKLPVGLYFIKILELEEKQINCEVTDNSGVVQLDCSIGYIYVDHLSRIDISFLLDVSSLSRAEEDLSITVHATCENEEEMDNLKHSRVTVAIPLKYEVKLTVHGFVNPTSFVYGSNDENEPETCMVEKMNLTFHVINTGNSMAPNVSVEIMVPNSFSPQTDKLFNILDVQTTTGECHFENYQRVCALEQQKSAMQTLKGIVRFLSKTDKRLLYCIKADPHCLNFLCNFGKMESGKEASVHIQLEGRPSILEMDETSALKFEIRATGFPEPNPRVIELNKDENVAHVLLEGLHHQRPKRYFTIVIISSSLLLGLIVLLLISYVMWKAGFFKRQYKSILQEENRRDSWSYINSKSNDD
VLA-4-IgG chimeric protein, sequence (P05556 21-798, change not shown): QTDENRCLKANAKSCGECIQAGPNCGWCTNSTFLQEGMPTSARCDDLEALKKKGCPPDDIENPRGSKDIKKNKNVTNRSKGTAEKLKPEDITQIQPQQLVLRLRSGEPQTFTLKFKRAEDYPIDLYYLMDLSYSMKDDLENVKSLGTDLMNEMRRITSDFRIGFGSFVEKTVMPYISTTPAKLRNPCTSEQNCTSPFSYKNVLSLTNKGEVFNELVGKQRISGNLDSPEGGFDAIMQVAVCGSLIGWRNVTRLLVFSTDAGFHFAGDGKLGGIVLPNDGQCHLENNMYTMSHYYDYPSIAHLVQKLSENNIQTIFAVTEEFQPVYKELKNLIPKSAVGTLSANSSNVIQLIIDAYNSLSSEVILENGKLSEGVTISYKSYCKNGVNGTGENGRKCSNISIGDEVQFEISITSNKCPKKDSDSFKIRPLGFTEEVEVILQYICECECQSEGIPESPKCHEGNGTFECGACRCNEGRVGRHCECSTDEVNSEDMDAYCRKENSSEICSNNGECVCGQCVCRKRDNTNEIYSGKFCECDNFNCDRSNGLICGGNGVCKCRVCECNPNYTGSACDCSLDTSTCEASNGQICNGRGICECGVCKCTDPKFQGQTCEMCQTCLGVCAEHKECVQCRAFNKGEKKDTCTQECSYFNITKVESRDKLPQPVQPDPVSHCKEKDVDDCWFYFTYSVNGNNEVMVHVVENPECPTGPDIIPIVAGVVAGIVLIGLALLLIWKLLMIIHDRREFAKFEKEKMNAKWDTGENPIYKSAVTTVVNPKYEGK

Test system in one series: not given
Test: not given
The following applies: from H-Cys(Acm)-Ile-Asp-Hph-Leu-Cys(Acm)-OH; disulfide bond; 20-membered ring; AgOTf/anisole/TFA; then DMSO/HCl; 50% DMSO-1N HCl; 2 steps.
Turning to `CC[C@H](C)[C@@H]1NC(=O)[C@@H](N)CSSC[C@@H](C(=O)O)NC(=O)[C@H](CC(C)C)NC(=O)[C@H](CCc2ccccc2)NC(=O)[C@H](CC(=O)O)NC1=O` [C*IDHphLC*], the ring closure, yield after HPLC was determined as 38%.

Staying with this series, now noted: from H-Cys(Acm)-Ile-Asp-Tle-Leu-Cys(Acm)-OH; disulfide bond; 20-membered ring; AgOTf/anisole/TFA; then DMSO/HCl; 50% DMSO-1N HCl; 2 steps.
Compound `CC[C@H](C)[C@@H]1NC(=O)[C@@H](N)CSSC[C@@H](C(=O)O)NC(=O)[C@H](CC(C)C)NC(=O)[C@H](C(C)(C)C)NC(=O)[C@H](CC(=O)O)NC1=O` [C*IDTleLC*] yielded a ring closure, yield after HPLC of 23%.

Another series addresses VLA-4-IgG chimeric protein (Homo sapiens, UniProt P05556+P13612). Kind of series: Inhibition of binding of CS-1 peptide and VLA-4-IgG chimeric protein. The following applies: binding of immobilized CS-1 peptide and VLA-4-IgG chimeric protein, absorbance at 490 nm. The source says: As the method for investigating the adhesion inhibiting activity in terms of VLA-4, there can be used an adhesion measuring system for cells such as Ramos cells and Jurkat cells, and fibronectin or a fibronectin fragment, for example a peptide consisting of the CS-1 sequence (Gly Pro Glu Ile Leu Asp Val Pro Ser Thr SEQ ID NO:59) [hereinafter referred to as the CS-1 peptide], immobilized on an immunoplate. Furthermore, as another method, there can be used a binding measurement system for VLA-4 protein and fibronectin or a fibronectin fragment, for example the CS-1 peptide, immobilized on an immunoplate or the like. In the present invention, it is preferred that the inhibiting activity of a compound be evaluated in a binding measurement system for a VLA-4 and immunoglobulin chimeric protein (VLA-4-IgG chimeric protein) and a peptide containing the CS-1 sequence (WO98/032771), but there is no restriction thereto. Reference here to VLA-4-IgG chimeric protein means a heterodimer complex molecule formed when a VLA-4 α4 and immunoglobulin chimeric protein (referred to hereinafter as the VLAα4.IgG chimeric protein) and a VLA-4 β1 and immunoglobulin chimeric protein (referred to hereinafter as the VLAβ1.IgG chimeric protein) undergo association. Moreover, for the immunoglobulin, there can be used heavy or light chains of IgG, IgM or the like, and in the present invention IgG1 heavy chains were used. When observing the cyclic peptide inhibition effect, it is best to use a previously prepared mixture of the α4.IgG heavy chain-β1.IgG heavy chain chimeric protein heterodimer complex and the test material.
Cyclic peptide inhibiting effect in terms of the binding of CS-1 peptide and VLA-4-IgG chimeric protein.
A conjugate of the peptide containing the CS-1 sequence shown in SEQ ID NO:57 and rabbit IgG (Sigma) was prepared in accordance with the literature (Humphries, M. J. et al, J. Biol. Chem., 262, 6886-6892 (1987)). This was diluted with PBS(−), and 100 μl/well quantities introduced into a 96 well immunoplate (NUNC), after which this was left to stand for 16 hours at 4° C. and the CS-1 peptide immobilized.
Gys Lue His Gly Pro Glu Ile Leu Asp Val Pro Ser Thr (SEQ ID NO:57)
Next, after washing the interior of the wells twice with PBS(−), 300 μl/well quantities of 1% BSA-PBS solution which had been heat treated for 10 minutes at 80° C. were introduced, then left for 3 hours at 4° C., after which the solution inside the wells was removed by suction.
Each cyclic peptide and VLA-4-IgG chimeric protein (100 μl) were reacted together beforehand for 20 minutes at room temperature, and then reaction carried out for 3 hours at 30° C. with the CS-1 peptide. Subsequently, the non-bonded VLA-4-IgG chimeric protein was removed by suction, and washed away twice with TBS buffer (150 mM NaCl, 25 mM Tris-HCl, 1 mM MnCl2 pH 7.4) containing 0.1% BSA. To the bonded VLA-4-IgG chimeric protein, biotin labelled anti-human IgG antibody (Vector) as the first antibody was added, and then avidin labelled horseradish peroxidase (Sigma) was added as the second antibody and reaction carried out. Following the reaction, o-phenylenediamine was added as a substrate and colour development effected, and then the absorbance measured at 490 nm. From this absorbance, the binding inhibition activity due to the respective peptides was determined.
For `CC[C@H](C)[C@@H]1NC(=O)[C@@H](N)CSSC[C@@H](C(=O)O)NC(=O)[C@H](CC(C)C)NC(=O)[C@H](Cc2ccc3ccccc3c2)NC(=O)[C@H](CC(=O)O)NC1=O` [compound 34] (H-CID[2Nal]LC-OH; disulfide 1-6; N-terminus and C-terminus assumed), the IC50 (in general, the concentration at which inhibition is half-maximal) is 600 nM. Turning to `CC[C@H](C)[C@@H]1NC(=O)[C@@H](N)CSSC[C@@H](C(=O)O)NC(=O)[C@H](CC(C)C)NC(=O)[C@H](Cc2ccccn2)NC(=O)[C@H](CC(=O)O)NC1=O` [compound 29] (H-CID[2Pal]LC-OH; disulfide 1-6), the IC50 stood at 500 nM.

Turning to `CC[C@H](C)[C@@H]1NC(=O)[C@@H](N)CSSC[C@@H](C(=O)O)NC(=O)[C@H](CC(C)C)NC(=O)[C@H](Cc2c[nH]c3ccccc23)NC(=O)[C@H](CC(=O)O)NC1=O` [compound 31] (H-CIDWLC-OH; disulfide 1-6), the 50% inhibitory concentration (IC50) is 450 nM. The IC50 values of the last two compounds are within 1.5-fold of each other.

Regarding `CC[C@H](C)[C@@H]1NC(=O)[C@@H](N)CSSC[C@@H](C(=O)O)NC(=O)[C@H](CC(C)C)NC(=O)[C@H](Cc2c[nH]cn2)NC(=O)[C@H](CCS(C)(=O)=O)NC1=O` [compound 17] (H-CI[Met(O2)]HLC-OH; disulfide 1-6), the IC50 stood at 800 nM. Against the preceding compound, the IC50 is about 1.8-fold higher. Still for that read-out and setting: the figure for `CC(C)C[C@@H]1NC(=O)[C@H](Cc2c[nH]cn2)NC(=O)[C@H](CC(=O)O)NC(=O)[C@@H]2Cc3ccccc3CN2C(=O)[C@@H](N)CSSC[C@@H](C(=O)O)NC1=O` [compound 25] (H-C[Tic]DHLC-OH; disulfide 1-6) is 650 nM; for `CC[C@H](C)[C@@H]1NC(=O)[C@@H](N)CSSC[C@@H](C(=O)O)NC(=O)[C@H](CC(C)C)NC(=O)[C@H](Cc2c[nH]cn2)NC(=O)[C@H](CC(=O)O)NC1=O` [compound 4] (H-CIDHLC-OH; disulfide 1-6) it is 1200 nM.

`CC[C@H](C)[C@@H]1NC(=O)[C@H](Cc2ccccc2)NC(=O)[C@H](CC(=O)O)NC(=O)[C@H]([C@@H](C)CC)NC(=O)[C@@H](N)CSSC[C@@H](C(=O)O)NC1=O` [compound 48] (H-CIDFIC-OH; disulfide 1-6) displayed an IC50 of 250 nM.

Compound `CC[C@H](C)[C@@H]1NC(=O)[C@@H](N)CSSC[C@@H](C(=O)O)NC(=O)[C@H](CC(C)C)NC(=O)[C@H](Cc2c[nH]cn2)NC(=O)[C@H](CCC(=O)O)NC1=O` [compound 9] (H-CIEHLC-OH; disulfide 1-6) gave an IC50 of 1600 nM. Still for that read-out and setting: next, `CC(C)C[C@@H]1NC(=O)[C@H](Cc2c[nH]cn2)NC(=O)[C@H](CC(=O)O)NC(=O)[C@H](C2CCCCC2)NC(=O)[C@@H](N)CSSC[C@@H](C(=O)O)NC1=O` [compound 22] (H-C[Chg]DHLC-OH; disulfide 1-6): 120 nM.

Test system in another series: not listed separately
Put plainly: Stability in mouse serum.
Details: not given
In kind it is in vitro ADME.
Turning to `CC[C@H](C)[C@@H]1NC(=O)[C@@H](N)CSSC[C@@H](C(=O)O)NC(=O)[C@H](CC(C)C)NC(=O)[C@H](Cc2c[nH]cn2)NC(=O)[C@H](CCS(C)(=O)=O)NC1=O` [Sequence Number 17, C*IMet(O2)HLC*] (H-CI[Met(O2)]HLC-OH; disulfide 1-6; N-terminus and C-terminus assumed), the “stability in mouse serum” value is recorded as “stable for 24 hours”.
